What all share (format): in vivo
For one series, the system named is Priplaneta americana. Kind of series: Test Example 12: mouse feed poison bait, mortality with time. To be noted: bait 1%. As for the experimental part: 1 g of feeding stuff for mice was treated with 0.5 ml of an acetone solution containing 10 mg of a sample compound and put in a constant temperature chamber at 40° C. for 20 hours to sufficiently evaporate acetone, whereby a poison bait chemical containing 1% of the sample compound was prepared. Then, this poison bait chemical was put into a cup together with a wet cotton, and 10 […] (Priplaneta americana) were released and kept at 25° C. in a breeding room, whereby the mortality was examined as the time passed.

In series [1] the test system is Reticulitermes speratus. In words: Test Example 6: treated filter paper in acrylic cup, termite mortality after 7 days. To be noted: 168 h. As for the experimental part:
(§1) A filter paper having a diameter of 80 mm was placed in a cylindrical cup made of acrylic resin having a diameter of 80 mm and a height of 60 mm (i.e. a cup having a hole with a diameter of 10 mm formed in the bottom and having hard plaster (Dental Stone) set at the bottom in a thickness of 10 mm), and 1 ml of a solution containing a sample compound in a predetermined concentration, was dropped thereon. Then, ten termite workers and one termite soldier (Reticulitermes speratus) were released thereon. The cup was placed in a container having wet cotton laid over the bottom, and the container was maintained at room temperature of 25° C. for 7 days, whereupon the mortality of termites in the cup was examined.

For series [2], the system named is Coptotermes formosanus. Kind of series: Test Example 5: treated filter paper in acrylic cup, termite mortality after 7 days. To be noted: 168 h. The procedure: as §1, with “nine” for “ten”, “(Coptotermes formosanus)” for “(Reticulitermes speratus)”
The subject of series [3] is Reticulitermes speratus. Kind of series: Test Example 9: treated filter paper in acrylic cup, termite mortality 5 and 20 days later. To be noted: 1000 ppm. The procedure:
as §1, with “C., and 5 days later and 20 days later,” for “C. for 7 days, whereupon”

Series [4] relates to Coptotermes formosanus. Kind of series: Test Example 24: treated filter paper in Petri dish, termite mortality on 21st or 28th day. As for the experimental part: (§2) Mortality (%)=(Number of dead termite workers/15 termite workers)×100
(§3) Further, by the Colby's formula, the theoretical value (%) of mortality can be calculated. In a case where the actual mortality (%) is higher than the theoretical value (%), it can be said that the composition of the present invention has a synergistic effect for controlling the house insect pest.
A filter paper having a diameter of 80 mm was placed in a plastic Petri dish, and 1 ml of a pesticide solution having a predetermined concentration was dropped thereon, whereupon 10 termite workers (Coptotermes formosanus) were released, and a cover was put on the Petri dish. This plastic Petri dish was put in a container having wet cotton laid over the bottom and maintained at room temperature of 25° C. On 21 or 28th day after the treatment, the number of dead termites in the Petri dish was examined, and the mortality was calculated in the same manner as Test Example 1.

Series [5] concerns Reticulitermes speratus. In words: Test Example 1: treated filter paper in Petri dish, termite mortality after 13 days. To be noted: 312 h. The procedure:
(§4) A filter paper having a diameter of 80 mm was placed in a plastic Petri dish, and 1 ml of a pesticide solution having a predetermined concentration was dropped thereon. After the treatment, the solvent was sufficiently evaporated, and then, 1 ml of distilled water was impregnated to the treated filter paper, whereupon 15 termite workers and one termite soldier (Reticulitermes speratus) were released. The plastic Petri dish was placed in a container having wet cotton laid over the bottom, and the container was maintained at 25° C. for 13 days, whereupon the number of dead termites in the Petri dish was examined, and the mortality was calculated by the following formula.
as §2, §3

Series [6] concerns Reticulitermes speratus. Kind of series: Test Example 3: treated filter paper in Petri dish, termite mortality after 37 days. To be noted: Reticulitermes speratus, 888 h. The procedure:
as §2, §3
as §4, with “concentration,” for “concentration”, “10” for “15”, “workers” for “workers and one termite soldier”, “37” for “13”, “in” for “by”, “same manner as in Test Example 1.” for “following formula.”

The test system of series [7] is Reticulitermes speratus. In words: Test Example 2: treated filter paper in Petri dish, termite mortality after 17 days. To be noted: 408 h. As for the experimental part:
as §2, §3
as §4, with “concentration,” for “concentration”, “evaporated” for “evaporated,”, “17 days. Then,” for “13 days, whereupon”, “in” for “by”, “same manner as in Test Example 1.” for “following formula.”

The next series concerns Lasius japonicus. In words: Test Example 11: powdered skim milk poison bait, controlling effect on ants 4 days later. To be noted: bait concentration 1%. The procedure: 1 g of powdered skim milk was treated with 1 ml of an acetone solution containing 10 mg of a sample compound and put in a constant temperature chamber at 40° C. for 20 hours to sufficiently evaporate acetone. In this manner, a poison bait chemical containing 1% of an active ingredient compound, was prepared. Then, this poison bait chemical was put into a cup together with a wet cotton, and 15 ants (Lasius japonicus) were released. 4 Days later, the mortality was examined. Here, when the mortality 4 days later was at least 40%, the controlling effect was rated to be positive.

As for `CCOP(=S)(OCC)Oc1nc(Cl)c(Cl)cc1Cl` [Chlorpyrifos, reference compound], the Mortality in the series on Priplaneta americana (1 Day later), in the series on Priplaneta americana (8 Days later) and in the series on Priplaneta americana (48 Days later) was 100% throughout. In addition, the mortality at 1000 ppm with Reticulitermes speratus [1] and in the series with Coptotermes formosanus [2] was 100% in each case. The same compound had a mortality at 500 ppm with Coptotermes formosanus [2] of 100%.
Consider `CC(=NN=C(Cc1ccc(C(F)(F)F)cc1)c1ccc(Cl)cc1)N(C)C` [Compound No. II-1, [4′-chloro-2-(4-trifluoromethylphenyl)acetophenone]N′-[1-(dimethylamino)ethylidene]hydrazone], for which the Mortality in the series on Reticulitermes speratus [3] (5 Days later) is reported as 0%; in the series on Reticulitermes speratus [3] (20 Days later), 100%.
As to `CCOC(=O)NN=C(Cc1ccc(C(F)(F)F)cc1)c1ccc(Cl)cc1` [Compound No. II-3], the Mortality in the series with Reticulitermes speratus [3] (5 Days later) was determined as 0%; in the series on Reticulitermes speratus [3] (20 Days later) it was 100%; with Priplaneta americana (1 Day later) it was 0%; in the series with Priplaneta americana (8 Days later), 100%; with Priplaneta americana (48 Days later) it was 100%.
On to `O=C(NC(=O)c1c(F)cccc1F)Nc1cc(Cl)c(Oc2ncc(C(F)(F)F)cc2Cl)c(Cl)c1` [Chlorfluazuron], for which the figures for the mortality at 500 ppm in the series with Coptotermes formosanus [4] (Coptotermes formosanus) and with Reticulitermes speratus [6] (Chlorfluazuron 500 ppm alone) were 20% and 30%, respectively. Besides, the mortality at 1000 ppm with Coptotermes formosanus [4] (Coptotermes formosanus) amounted to 30%; with Reticulitermes speratus [5] it was 0%; in the series on Reticulitermes speratus [6] (Chlorfluazuron 1000 ppm alone), 50%. Further, the mortality at 2000 ppm in the series with Coptotermes formosanus [4] (Coptotermes formosanus) came out at 30%; in the series on Reticulitermes speratus [5], 33%; in the series on Reticulitermes speratus [6] (Chlorfluazuron 2000 ppm alone), 50%. In addition, the mortality at 4000 ppm in the series on Reticulitermes speratus [5] was determined as 53%; in the series on Reticulitermes speratus [6] (Chlorfluazuron 4000 ppm alone), 50%. Also, the mortality at 8000 ppm with Reticulitermes speratus [5] was 60%.
As for `Cc1c(COC(=O)[C@@H]2[C@H](/C=C(\Cl)C(F)(F)F)C2(C)C)cccc1-c1ccccc1` (racemic) [Bifenthrin], the Mortality with Coptotermes formosanus [4] (Bifenthrin 0.25 ppm alone, 28th day) worked out at 0%. In the series on Coptotermes formosanus [4] (Coptotermes formosanus), the mortality at 0.25 ppm was determined as 0%, the mortality at 0.5 ppm came out at 10% and the mortality at 1 ppm stood at 40%.
As to `O=C(NC(=O)c1c(F)cccc1F)Nc1cc(Cl)c(OC(F)(F)C(F)F)c(Cl)c1` [Hexaflumuron], in the series on Reticulitermes speratus [7], the mortality at 1000 ppm turned out to be 40%, the mortality at 2000 ppm amounted to 40%, the mortality at 4000 ppm came out at 20% and the mortality at 8000 ppm came to 33%.
Turning to `CC(=NN=C(Cc1ccc(C(C)(C)C)cc1)c1ccc(C)cc1)N(C)C` [Compound No. II-6, [4′-methyl-2-(4-tert-butylphenyl)acetophenone]N′-[1-(dimethylamino)ethylidene]hydrazone], the Mortality is reported as 70% in the series with Reticulitermes speratus [3] (5 Days later) and 100% in the series on Reticulitermes speratus [3] (20 Days later). In the series with Lasius japonicus, the Controlling effect entry is recorded as “Positive (when the mortality 4 days later was at least 40%, the controlling effect was rated to be positive)”.
As to `CC(N)=NN=C(Cc1ccc(C(F)(F)F)cc1)c1ccc(Cl)cc1` [Compound No. II-7, [4′-chloro-2-(4-trifluoromethylphenyl)acetophenone]N′-[1-aminoethylidene]hydrazone], the Mortality in the series with Reticulitermes speratus [3] (5 Days later) and in the series with Reticulitermes speratus [3] (20 Days later) was 100% in each case.

These data come from US7655677B2, “Composition and method for controlling house insect pest” (priority 2002, dated 2010).
